Results from patent publication US9932637B2, “Genetic polymorphisms associated with cardiovascular disorders and drug response, methods of detection and uses thereof” (CELERA CORPORATION, priority 2003, dated 2018).

Tested on: patients with prior myocardial infarction (CARE study)
Assay: CARE: association of SNPs with pravastatin treatment in cardiovascular events prevention (logistic regression, odds ratio pravastatin vs placebo by genotype; Table 8)
Format: in vivo, human
Conditions: All Patients; for Total Cardiovascular Disease Events, n/total (%) / Non-fatal MI (def & prob), n/total (%) / Fatal/Non-fatal MI (def & prob), n/total (%) / Fatal/Non-fatal Atherosclerotic CV Disease, n/total (%) / Hosp. for Cardiovascular Disease, n/total (%) / Total Mortality, n/total (%): Prava
From the text: In order to identify genetic markers associated with acute coronary events (e.g. MI, stroke, unstable angina, congestive heart failure, etc.) or response to statin treatment for the prevention of coronary events, samples from the Cholesterol and Recurrent Events (CARE) study (a randomized multicentral double-blinded trial on secondary prevention of acute coronary events with pravastatin) (Sacks et al., 1991, Am. J. Cardiol. 68: 1436-1446) were genotyped. A well-documented myocardial infarction (MI) was one of the enrollment criteria for entry into the CARE study. Patients were enrolled in the CARE trial from 80 participating study centers. […] Patients were randomized to receive either 40 mg of pravastatin once daily or a matching placebo. The primary endpoint of the trial was death from coronary heart disease and the median duration of follow-up was 5.0 years (range, 4.0 to 6.2 years). […] Secondary endpoints of other related cardiovascular or metabolic disease events, and changes in clinical variables were also recorded in pravastatin-treated and placebo groups. All individuals included in the study had signed a written informed consent form and the study protocol was approved by the respective Institutional Review Boards (IRBs).
For genotyping SNPs in CARE patient samples, DNA was extracted from blood samples using conventional DNA extraction methods such as the QIA-amp kit from Qiagen. Genotypes were obtained on an ABI PRISM® 7900HT Sequence Detection PCR system (Applied Biosystems, Foster City, Calif.) by kinetic allele-specific PCR, similar to the method described by Germer et al. (Germer S., Holland M. J., Higuchi R. 2000, Genome Res. 10: 258-266).
Statistical analysis for association of SNPs with pravastatin treatment in cardiovascular events prevention (Table 8) was carried out using an overall logistic regression model that included an intercept, a parameter for the effect of a genotype containing two rare alleles versus a genotype containing no rare alleles, a parameter for the effect of a genotype containing one rare allele versus a genotype containing no rare alleles, a parameter for the effect of use of pravastatin versus the use of placebo, and parameters for the interaction effects between SNP genotypes and pravastatin use. The test of the overall model is a chi-square test with two degrees of freedom for analyses containing all three genotypes, and one degree of freedom for analyses containing two genotypes.
Effect sizes were estimated through odds ratios (pravastatin group versus placebo) for carriers of each genotype (groups of 0, 1, and 2 minor allele carriers). The effect was considered to be significant if p-value for testing whether any of the interactions between SNP genotypes and pravastatin use were <0.05. […] Odds ratios less than one indicate that the specific SNP allele has a protective effect and odds ratios greater than one indicate that the specific SNP allele has an adverse effect.

[1] = HLA-DPB1 hCV25651174, Coronary Artery Bypass or Revascularization
[2] = HLA-DPB1 hCV25651174, Fatal CHD/Definite Non-fatal MI
[3] = HLA-DPB1 hCV25651174, Fatal/Non-fatal Atherosclerotic CV Disease
[4] = HLA-DPB1 hCV25651174, Fatal/Non-fatal MI (def & prob)
[5] = HLA-DPB1 hCV25651174, Hosp. for Cardiovascular Disease
[6] = HLA-DPB1 hCV25651174, Non-fatal MI (def & prob)
[7] = HLA-DPB1 hCV25651174, Total Cardiovascular Disease Events
[8] = HLA-DPB1 hCV25651174, Total Coronary Heart Disease Events
[9] = ICAM1 hCV8726337, Fatal/Non-fatal MI (def & prob)
[10] = ICAM1 hCV8726337, Non-fatal MI (def & prob)
[11] = ICAM3 hCV25473653, Fatal/Non-fatal Atherosclerotic CV Disease
[12] = ICAM3 hCV25473653, Total Cardiovascular Disease Events
[13] = IGF2R hCV2200985, Hosp. for Cardiovascular Disease

CC[C@H](C)C(=O)O[C@H]1C[C@H](O)C=C2C=C[C@H](C)[C@H](CC[C@@H](O)C[C@@H](O)CC(=O)O)[C@H]21 [pravastatin]
Total Cardiovascular Disease Events, n/total (%) (HLA-DPB1 hCV25651174, 2 Rare Alleles, n/total 64/144): (44.4%) | Prava vs. Placebo Odds Ratio, 0 Rare Alleles [1]: 0.68 | Prava vs. Placebo Odds Ratio, 1 Rare Alleles [1]: 0.58 | Prava vs. Placebo Odds Ratio, 2 Rare Alleles [1]: 2.11 | Prava vs. Placebo Odds Ratio, 0 Rare Alleles [2]: 0.57 | Prava vs. Placebo Odds Ratio, 1 Rare Alleles [2]: 0.74 | Prava vs. Placebo Odds Ratio, 2 Rare Alleles [2]: 1.77 | Prava vs. Placebo Odds Ratio, 0 Rare Alleles [3]: 0.66 | Prava vs. Placebo Odds Ratio, 1 Rare Alleles [3]: 0.78 | Prava vs. Placebo Odds Ratio, 2 Rare Alleles [3]: 1.60 | Prava vs. Placebo Odds Ratio, 0 Rare Alleles [4]: 0.54 | Prava vs. Placebo Odds Ratio, 1 Rare Alleles [4]: 0.67 | Prava vs. Placebo Odds Ratio, 2 Rare Alleles [4]: 1.97 | Prava vs. Placebo Odds Ratio, 0 Rare Alleles [5]: 0.70 | Prava vs. Placebo Odds Ratio, 1 Rare Alleles [5]: 0.70 | Prava vs. Placebo Odds Ratio, 2 Rare Alleles [5]: 1.42 | Prava vs. Placebo Odds Ratio, 0 Rare Alleles [6]: 0.59 | Prava vs. Placebo Odds Ratio, 1 Rare Alleles [6]: 0.68 | Prava vs. Placebo Odds Ratio, 2 Rare Alleles [6]: 2.23 | Prava vs. Placebo Odds Ratio, 0 Rare Alleles [7]: 0.69 | Prava vs. Placebo Odds Ratio, 1 Rare Alleles [7]: 0.71 | Prava vs. Placebo Odds Ratio, 2 Rare Alleles [7]: 1.35 | Prava vs. Placebo Odds Ratio, 0 Rare Alleles [8]: 0.69 | Prava vs. Placebo Odds Ratio, 1 Rare Alleles [8]: 0.73 | Prava vs. Placebo Odds Ratio, 2 Rare Alleles [8]: 1.81 | Non-fatal MI (def & prob), n/total (%) (ICAM1 hCV8726337, 0 Rare Alleles, n/total 28/495): (5.7%) | Fatal/Non-fatal MI (def & prob), n/total (%) (ICAM1 hCV8726337, 0 Rare Alleles, n/total 31/495): (6.3%) | Non-fatal MI (def & prob), n/total (%) (ICAM1 hCV8726337, 1 Rare Allele, n/total 76/736): (10.3%) | Fatal/Non-fatal MI (def & prob), n/total (%) (ICAM1 hCV8726337, 1 Rare Allele, n/total 84/736): (11.4%) | Non-fatal MI (def & prob), n/total (%) (ICAM1 hCV8726337, 2 Rare Alleles, n/total 30/282): (10.6%) | Fatal/Non-fatal MI (def & prob), n/total (%) (ICAM1 hCV8726337, 2 Rare Alleles, n/total 31/282): (11.0%) | Prava vs. Placebo Odds Ratio, 0 Rare Alleles [9]: 0.39 | Prava vs. Placebo Odds Ratio, 1 Rare Alleles [9]: 0.85 | Prava vs. Placebo Odds Ratio, 2 Rare Alleles [9]: 0.77 | Prava vs. Placebo Odds Ratio, 0 Rare Alleles [10]: 0.39 | Prava vs. Placebo Odds Ratio, 1 Rare Alleles [10]: 0.83 | Prava vs. Placebo Odds Ratio, 2 Rare Alleles [10]: 0.94 | Fatal/Non-fatal Atherosclerotic CV Disease, n/total (%) (ICAM3 hCV25473653, 0 Rare Alleles, n/total 299/924): (32.4%) | Total Cardiovascular Disease Events, n/total (%) (ICAM3 hCV25473653, 0 Rare Alleles, n/total 376/924): (40.7%) | Fatal/Non-fatal Atherosclerotic CV Disease, n/total (%) (ICAM3 hCV25473653, 1 Rare Allele, n/total 191/511): (37.4%) | Total Cardiovascular Disease Events, n/total (%) (ICAM3 hCV25473653, 1 Rare Allele, n/total 230/511): (45.0%) | Fatal/Non-fatal Atherosclerotic CV Disease, n/total (%) (ICAM3 hCV25473653, 2 Rare Alleles, n/total 14/70): (20.0%) | Total Cardiovascular Disease Events, n/total (%) (ICAM3 hCV25473653, 2 Rare Alleles, n/total 19/70): (27.1%) | Prava vs. Placebo Odds Ratio, 0 Rare Alleles [11]: 0.71 | Prava vs. Placebo Odds Ratio, 1 Rare Alleles [11]: 0.97 | Prava vs. Placebo Odds Ratio, 2 Rare Alleles [11]: 0.37 | Prava vs. Placebo Odds Ratio, 0 Rare Alleles [12]: 0.71 | Prava vs. Placebo Odds Ratio, 1 Rare Alleles [12]: 0.93 | Prava vs. Placebo Odds Ratio, 2 Rare Alleles [12]: 0.37 | Hosp. for Cardiovascular Disease, n/total (%) (IGF2R hCV2200985, 0 Rare Alleles, n/total 465/1175): (39.6%) | Hosp. for Cardiovascular Disease, n/total (%) (IGF2R hCV2200985, 1 Rare Allele, n/total 137/316): (43.4%) | Hosp. for Cardiovascular Disease, n/total (%) (IGF2R hCV2200985, 2 Rare Alleles, n/total 5/24): (20.8%) | Prava vs. Placebo Odds Ratio, 0 Rare Alleles [13]: 0.75 | Prava vs. Placebo Odds Ratio, 1 Rare Alleles [13]: 0.88 | Prava vs. Placebo Odds Ratio, 2 Rare Alleles [13]: 0.12 | Total Mortality, n/total (%) (IL1A hCV9546471, 0 Rare Alleles, n/total 52/759): (6.9%) | Total Mortality, n/total (%) (IL1A hCV9546471, 1 Rare Allele, n/total 28/617): (4.5%) | Total Mortality, n/total (%) (IL1A hCV9546471, 2 Rare Alleles, n/total 4/132): (3.0%) | Prava vs. Placebo Odds Ratio, 0 Rare Alleles (IL1A hCV9546471, Total Mortality): 1.40
